Source: US20230263710A1, “ORAL CARE AGENT” (OSAKA UNIVERSITY, priority 2020, published 2023)
Where two headings read alike, the source gives them in different places.

Assay: Lewis acidity measuring method (1): reaction rate constant of reaction between CoTPP and oxygen in the presence of a Lewis acid
Format: physicochemical

Compound	kcat (reaction rate constant of reaction between CoTPP and oxygen in the presence of a Lewis acid) [M^−2 s^−1]	kcat (reaction rate constant of reaction between CoTPP and oxygen in the presence of a Lewis acid) (acetonitrile, saturated O2, room temperature) [M^−2 s^−1]
CCCC[N+](CCCC)(CCCC)CCCC.F[P-](F)(F)(F)(F)F [tetrabutylammonium hexafluorophosphate]	>0.1	
benzalkonium chloride		0.18
benzethonium chloride	0.24	
